According to patent publication US8252532B2 (University of Connecticut, priority 2006, dated 2012):

How the values were obtained:
[1] = system: Ovcar-3 cells; assay: Apoptotic nuclei in Ovcar-3 cells (DAPI staining); type: cell-based, human; conditions: for effect on CDDP-induced apoptosis: simultaneous treatment with CDDP
Experimental: In order to assess the effects of CDDP, P4 and PGRMC1's role in regulating the viability of ovarian cancer cells, Ovcar-3 cells were used. Ovcar-3 cells were maintained in culture as described by Kim et al (23). Briefly, Ovcar-3 cells were cultured in RPMI-1640 medium (Invitrogen, Grand Island, N.Y.) supplemented with 10% fetal bovine serum (HyClone, Logan, Utah), 100 U/ml penicillin G, 100 ug/ml streptomycin (Invitrogen, Grand Island, N.Y.), at 37° C. in a humidified atmosphere of 5% CO2 incubator. The Ovcar-3 cells were cultured for 72 hours before each experiment.
PGRMC1 siRNA treatment was used to deplete PGRMC1 levels (28). In this protocol, PGRMC1 depletion was performed by transfecting PGRMC1 siRNA using siPORT NeoFX transfection protocol outlined by Ambion. Studies were conducted in which either scramble (control) siRNA (Cat#: AM4611) or one of three pre-designed human PGRMC1 siRNAs (Ambion siRNA ID#: 18430, 18340, 18248) were transfected at a concentration of 30 nM. Levels of PGRMC1 mRNA and protein were assessed by real-time PCR and western blot, respectively as previously described. In addition and immunocytochemical analysis confirmed that PGRMC1 siRNA (ID#: 18248) was an effective PGRMC1 siRNA. This siRNA targeted Exon 1 of PGRMC1 (forward, 5′-[…]tt and reverse, 5′-[…]tt). Based on this, Ovcar-3 cells were cultured for 3 days and then treated for 3 days with either scramble or PGRMC1 siRNA (ID#: 18248). The cells were then treated for 24 h with CDDP (15 μM) and P4 (1 μM) and observed apoptosis as described below.
Finally, a blocking antibody study was conducted as previously described (25). Ovcar-3 were plated and cultured for 3 days as previously described. The cells were then washed and cultured for 24 h with serum-supplemented containing CDDP (15 μM) and P4 (1 μM) and either rabbit IgG (20 μg/ml) or the antibody to PGRMC1 (20 μg/ml). After culture the cells were rinsed in Krebs/Hepes buffer and stained to detect apoptotic nuclei as described below.
Regardless of the experimental design, in situ DNA staining was used to identify apoptotic nuclei by adding DAPI directly to the culture medium at a final concentration of 2 μg/ml. The cultures were incubated for 10 min at 37° C. in the dark. After staining, the cells were observed under epi-fluorescent optics. Under these conditions only cells with condensed or fragmented nuclei were stained intensely with DAPI. The DAPI-stained cells also stained with YOPRO-1, a well-known nuclear stain that identifies apoptotic cells (19, 25, 28). These cells were considered to be apoptotic (25). At least 100 cells/culture well were counted and the percentage of apoptotic nuclei in each well determined. For the data shown in FIGS. 12 and 15, cells were selected randomly. In FIG. 6 the apoptotic status (i.e. DAPI staining; blue fluorescence) was determined for 100 transfected cells per well as indicated by their GFP (i.e. green) fluorescence.

[2] = system: human granulosa/luteal cells; assay: Apoptotic nuclei in human granulosa/luteal cells after serum withdrawal (TUNEL, in situ DNA staining); type: cell-based
Experimental: After the oocytes were removed, follicular aspirates were pooled and centrifuged at 250×g for 10 minutes. The cell pellet was resuspended in serum-free culture medium, layered on HISTOPAQUE-1077 and centrifuged for 30 minutes at 400×g. After centrifugation, the opaque interface containing the granulosa/luteal cells was carefully aspirated and transferred into a 15 ml sterile conical centrifuge tube. The cells were then washed by resuspending the cells in 12 ml of PBS and centrifuging them at 250×g for 10 minutes. This was repeated two additional times. The cell pellet was then resuspended in 1 ml of 0.25% trypsin-EDTA solution and incubated for 5 minutes to dissociate the cells. After trypsinization, 5 ml of serum-supplemented medium was added and the cells were centrifuged at 250×g for 10 minutes. The cells were then resuspended in serum-supplemented medium, counted in a hemacytometer and resuspended to yield a final concentration 1 million cells/ml.
Plastic lab-tek slides (BD Bioscience, Bedford, Mass.), which had been previously coated with Growth Factor Reduced Matrigel Matrix (BD Bioscience, Bedford, Mass.), were plated at about 60,000 cells per well in 0.5 ml of serum-supplemented medium with 2 U/ml (IU) of hCG. The medium was changed after 24 hours to remove any remaining blood cells or non-attached granulosa/luteal cells and the cultures continued for two additional days. The cultures were then subjected to the various experimental treatments as outlined below.
Both TUNEL and in situ DNA staining were used to identify apoptotic nuclei. For the TUNEL assay human granulosa/luteal cells were cultured for 5 hours in serum-free medium and then fixed in 10% formalin. The cells were stained using the Apoptag Peroxidase In Situ kit staining according to manufacture's instructions (Chemicon, Temecula, Calif.). In situ DNA staining was done by adding hydroethidine directly to the culture medium at a final concentration of 3.5 μg/ml. The cultures were incubated for 15 minutes at room temperature in the dark. After staining, the cells observed under epi-fluorescent optics. Under these conditions only cells with condensed or fragmented nuclei were stained intensely with hydroethidine. These cells were considered to be apoptotic in accordance with prior publications in the field. At least 100 cells/culture well were counted and the percentage of apoptotic nuclei in each well determined.
Human granulosa/luteal cells were plated on lab tek slides and cultured for three days as previously described. […] After culture the cells were raised in Krebs/Hepes buffer and stained to detect apoptotic nuclei as taught by Engmann et al., J. of Clinical Endocrinology and Metabolism 91(12): 4962-4968 (2006). One hundred cells in each chamber were counted and the percentage of apoptotic nuclei determined as previously described.

[3] = system: PGRMC1; assay: PGRMC1 mRNA and protein levels in Ovcar-3 cells after siRNA (real-time PCR, western blot, immunocytochemistry); type: cell-based, human; conditions: 72 h treatment; vs scramble control
Experimental: Real Time PCR. Quantitative measurements of PGR and PGRMC1 mRNA were made on cDNA samples provided by OriGene. […] Primers were evaluated with NCBI blast to confirm product specificity and products were designed to cross intron/exon borders. Primers used were: PGR forward [NT] ID NO: 13) and reverse [NT] ID NO: 14) and PGRMC-1 forward [NT] ID NO: 15) and reverse [NT] ID NO: 16). Quantitative real time PCR was performed on the MyiQ Single-Color Real-Time PCR Detection System (Bio-Rad, Hercules, Calif.). Samples were resuspended in twenty-five μl of the iQ SyberGreen Supermix (Bio-Rad) containing appropriate primers. Relative gene expression was evaluated with Bio-Rad iQ5 software using the ΔCT method (24). Each gene was evaluated on two separate identical array plates, which were loaded with equal amounts of cDNA per well as described by the manufacturer. End products were also run on agarose gels to confirm product size. Immunohistochemistry and immunocytochemistry were also used to assess the localization of PGRMC1 in formalin-fixed paraffin-embedded tissue sections of ovarian cancers and Ovcar-3 cells, respectively. […] Levels of PGRMC1 mRNA and protein were assessed by real-time PCR and western blot, respectively as previously described. […]

## N.N.[Cl][Pt][Cl] [CDDP, cis-diamminedichloroplatinum(II)]
[1]; 10% fetal bovine serum, FIG. 12B
  percentage of cells that undergo apoptosis (dose dependence): dose-dependent increase
[1]; in the presence of serum, within 24 h
  percentage of cells in which apoptosis is induced: 40 to 60%

## CC#C[C@]1(O)CC[C@H]2[C@@H]3CCC4=CC(=O)CCC4=C3[C@@H](c3ccc(N(C)C)cc3)C[C@@]21C [RU486]
[2]; 25 and 50 μM doses of RU486
  percentage of apoptotic nuclei: greater than 70%

## CC(=O)[C@H]1CC[C@H]2[C@@H]3CCC4=CC(=O)CC[C@]4(C)[C@H]3CC[C@]12C [progesterone, 4-Pregnene-3,20-dione]
[2]; 1 μM progesterone, IgG or IgY control
  effect on apoptosis due to serum-withdrawal in presence of IgG or IgY: suppressed apoptosis
[2]; all doses tested
  effect on apoptosis due to serum withdrawal: suppressed apoptosis
[2]; progesterone 1 μM, RU486 5 μM
  suppression of serum-withdrawal induced apoptosis in presence of RU486: still capable of suppressing serum-withdrawal induced apoptosis
[2]; progesterone 1 μM, RU486 25 and 50 μM
  ability to override the effect of RU486: could not override the effect of RU486
[2]; serum-free medium
  lowest effective dose suppressing apoptosis: 10 nM
[1]; addition of P4 to CDDP in serum
  reduction of the killing effect of CDDP: about 40%
[1]; serum withdrawal
  concentration of maximum effect on inhibition of apoptosis induced by serum withdrawal: ~1 µM
[1]; serum-free media for 5 h, p<0.05
  effect on rate of apoptosis in serum-free media: attenuated
[1]; 5 h of culture, p<0.05
  effect on CDDP-induced apoptosis: attenuated
[1]; 24 h of culture, p<0.05
  effect on CDDP-induced apoptosis: attenuated

## PGRMC1 siRNA (ID#: 18248): Ambion human PGRMC1 siRNA targeting Exon 1, nucleotides 365-386; SEQ ID NO: 7 and 8 (chain 1 GGUGUUCGAUGUGACCAAATT; chain 2 UUUGGUCACAUCGAACACCTT; chemistry not given here)
[1]; PGRMC1 depleted with siRNA, CDDP and P4
  enhancement of the killing effect of CDDP in the presence of P4: ≥ 50%
[1]; siRNA 3 days, then 24 h CDDP (15 μM) and P4 (1 μM), p<0.05
  effect on P4's ability to inhibit CDDP-induced apoptosis: attenuated
[3]
  PGRMC1 levels by immunocytochemical analysis: suppress PGRMC1 levels
